# Data as given in patent publication US9271957B2, “Methods of treating or preventing degenerative joint conditions, osteoarthritis, cartilage damage, and related disorders in companion animals” (HILL'S PET NUTRITION, INC., priority 2008, dated 2016).
# What was measured:
# cartilage markers [1] = test: Serum cartilage (arthritic) markers measured in the blood by ELISA in dogs fed different foods; type: in vivo
# cartilage markers [2] = test: as above; type: in vivo; conditions: for CPII: blood, d 0 as covariate
# Description: Thirty (30) dogs were used to determine the effect of lipoic acid when compared to an AAFCO control food or a test food containing fish oil.
# Biomarker Measurements: Serum cartilage markers were measured using ELISA based kits to determine concentrations of cartilage markers. Day 0 was used as a covariate in the analysis to adjust for baseline values.
# Table 2 illustrates the change in blood level of arthritic markers in dogs after being fed a control diet compared with dogs fed a control plus fish oil and a control plus lipoic acid for 30 days and measured again at day 90.
# Table 6 illustrates arthritic makers measured in blood samples for dogs after being fed a control diet compared with dogs fed a pet food including lipoic acid for 90 days.
# canine bone cells = test: Genes related to cartilage metabolism altered by lipoic acid in canine bone cells; type: in vivo, dogs; conditions: 90 days
# [3] = Body fat of dogs fed food containing lipoic acid; type: in vivo; conditions: dogs fed a food containing lipoic acid
# Description: These two markers are known to increase in dogs with osteoarthritis. […] In other words, dogs fed lipoic acid utilized available glucose more efficiently and shifted their metabolism towards mobilization of fat for energy use. […] The following tables show the difference in fat and weight as well as cartilage markers relative to treatment with lipoic acid.
# [4] = test system: genes related to cartilage and energy metabolism; test: Differential gene expression profile, whole blood RNA on canine 2 Affymetrix genechips; type: in vivo, dogs
# Description: A differential gene expression profile was studied between an AAFCO control food, a food containing fish oil, and a food containing lipoic acid. At a minimum of 1.3 fold change, a list of 1212 genes was generated compared to the AAFCO control and 1896 genes compared to the food containing fish oil at d 30.
# RNA Extraction: Total RNAs were isolated from whole blood samples using the PAXgene RNA isolation kit. All measurements were done with the canine 2 Affymetrix genechips. For statistical analysis, all measurements were normalized with RMA. All analysis was preformed using Partek. An ANOVA t-test was performed for genes that are differentially expressed between the control and test foods were selected based on p-value cutoff 0.1, fold change >+/−1.3.
# Table 4 illustrates the change in genes related to cartilage metabolism and energy metabolism in dogs after being fed a control diet compared with dogs fed a control plus lipoic acid.
# Plasma metabolomics = type: in vivo; conditions: relative to control fed dogs
# Description: Metabolomics: Plasma metabolites were analyzed and were compared as fold change relative to the control fed dogs.
# [5] = vs a similar food without lipoic acid
# [6] = lipoic acid vs. control, cartilage metabolism
# [7] = lipoic acid vs. control, energy metabolism
# [8] = lipoic acid vs. fish oil, cartilage metabolism
# [9] = lipoic acid vs. fish oil, energy metabolism
smiles,measurement,setting,value
"O=C(O)CCCC[C@@H]1CCSS1 (racemic) [Lipoic acid, lipoic acid]",Change CPII,"cartilage markers [1]; Day 30, without covariates",−95.10
same,Change CTXII,"cartilage markers [1]; Day 30, without covariates",−5.60
same,Change CPII,"cartilage markers [1]; Day 90, without covariates",−232.70
same,Change CTXII,"cartilage markers [1]; Day 90, without covariates",−0.59
same,CPII,cartilage markers [2]; Day 30,986.28 ng/mL
same,CPII,cartilage markers [2]; Day 90,848.0 ng/mL
same,immune status markers,cartilage markers [2]; after 90 days,decreased
same,"arthritic markers (i.e., CPII and CTXII)",cartilage markers [2]; after a 30 day treatment period,reduction
same,"arthritic markers (i.e., CPII and CTXII)",cartilage markers [2]; after a 90 day period,greater reduction
same,carboxy-terminal crosslinked telopeptide fragment of type II collagen,cartilage markers [2]; [5],greater decrease
same,type II collagen C-propeptide,cartilage markers [2]; [5],greater decrease
same,Directional change MMP3 (1582602_at),canine bone cells,down regulation and Down
same,Directional change Prolyl 4-hydroxylase (1600479_at),canine bone cells,up-regulation and up
same,Directional change TIMP2 (1582708_at),canine bone cells,up-regulation and up
same,Body fat,[3],lost fat
same,PDK4 gene expression,[4]; dogs fed lipoic acid,increasing
same,glucose transporters gene expression,[4]; dogs fed lipoic acid,upregulation
same,Fold change 12-lipooxygenase,[4]; [6],−1.3
same,Fold change Chondroitan sulfate synthase 1,[4]; [6],1.4
same,Fold change Facilitated glucose transporter 9,[4]; [6],1.4
same,Fold change Prolyl hydroxylase alpha 1,[4]; [6],1.4
same,Fold change Prolyl hydroxylase alpha 2,[4]; [6],1.3
same,Fold change TIMP1,[4]; [6],1.3
same,Fold change chondroitan sulfate proteoglycan 2 (veriscan),[4]; [6],1.5
same,Fold change heparin sulfate N-deacetylase/N-sulfotransferase 2,[4]; [6],1.3
same,Fold change 5′ AMP alpha 1,[4]; [7],1.3
same,Fold change 5′ AMP beta 1,[4]; [7],1.3
same,Fold change 5′ AMP gamma 2,[4]; [7],1.4
same,Fold change Facilitated glucose transporter 1,[4]; [7],1.3
same,Fold change Facilitated glucose transporter 6,[4]; [7],1.3
same,Fold change Fatty acid desaturase 1,[4]; [7],1.9
same,Fold change Hexokinase 3,[4]; [7],1.3
same,Fold change PDK4,[4]; [7],1.4
same,Fold change PPAR gamma,[4]; [7],1.3
same,Fold change Succinyl CoA ligase alpha,[4]; [7],1.3
same,Fold change 12-lipooxygenase,[4]; [8],−1.3
same,Fold change ADAMTS-2,[4]; [8],−1.3
same,Fold change ADAMTS-10,[4]; [8],−1.3
same,Fold change ADAMTS-16,[4]; [8],−1.3
same,Fold change Chondroitan sulfate synthase 1,[4]; [8],1.3
same,Fold change Facilitated glucose transporter 9,[4]; [8],1.4
same,Fold change Fibronectin 1,[4]; [8],1.4
same,Fold change Lysyl hydroxylase,[4]; [8],1.3
same,Fold change MMP2,[4]; [8],−1.3
same,Fold change MMP7,[4]; [8],−1.3
same,Fold change N-acetylgalactosaminyl-transferase 1,[4]; [8],1.3
same,Fold change Transforming growth factor beta receptor 1,[4]; [8],1.3
same,Fold change chondroitan sulfate proteoglycan 2 (veriscan),[4]; [8],1.5
same,Fold change 5′ AMP alpha 1,[4]; [9],1.3
same,Fold change 5′ AMP beta 1,[4]; [9],1.3
same,Fold change 5′ AMP gamma 2,[4]; [9],1.5
same,Fold change Facilitated glucose transporter 1,[4]; [9],1.3
same,Fold change Facilitated glucose transporter 6,[4]; [9],1.4
same,Fold change Hexokinase 3,[4]; [9],1.3
same,Fold change PDK4,[4]; [9],1.6
same,Fold change PPAR gamma,[4]; [9],1.3
same,Fold change SREBP-1,[4]; [9],−1.3
same,Fold change Succinyl CoA ligase alpha,[4]; [9],1.3
same,Fold change Succinyl CoA ligase beta,[4]; [9],1.3
same,Fold change cAMP responsice element modulator,[4]; [9],1.3
same,metabolite hydroxyproline in plasma,Plasma metabolomics,reduced
